# Values joined by “and” are separate entries in the source; they are usually repeats but may differ in a detail not shown here. Equal entries are not always repeated.
# Columns and labels:
# PHACA = assay: Greenhouse test, pre-emergence treatment; type: in vivo, Phalaris canariensis; settings: pre-emergence
# Excerpt: (§1) The culture containers used were plastic flowerpots containing loamy sand with approximately 3.0% of humus as the substrate. The seeds of the test plants were sown separately for each species.
# (§2) For the pre-emergence treatment, the active ingredients, which had been suspended or emulsified in water, were applied directly after sowing by means of finely distributing nozzles. The containers were irrigated gently to promote germination and growth and subsequently covered with transparent plastic hoods until the plants had rooted. This cover caused uniform germination of the test plants, unless this had been impaired by the active ingredients.
# (§3) Depending on the species, the plants were kept at 10-25° C. or 20-35° C., respectively.
# (§4) The test period extended over 2 to 4 weeks. During this time, the plants were tended, and their response to the individual treatments was evaluated.
# (§5) Evaluation was carried out using a scale from 0 to 100. 100 means no emergence of the plants, or complete destruction of at least the aerial moieties, and 0 means no damage, or normal course of growth. A moderate herbicidal activity is given at values of at least 60, a good herbicidal activity is given at values of at least 70, and a very good herbicidal activity is given at values of at least 85.
# (§6) The respective stated components a and b, and if appropriate, c were formulated as a 10% by weight strength emulsion concentrate and, with addition of the amount of solvent system, introduced into the spray liquor used for applying the active compound.
# (§7) In the examples, the solvent used was water.
# (§8) In the examples below, using the method of S. R. Colby (1967) “Calculating synergistic and antagonistic responses of herbicide combinations”, Weeds 15, p. 22ff., the value E, which is expected if the activity of the individual active compounds is only additive, was calculated. E=X+Y−(X·Y/100) where • X=percent activity using active compound a at an application rate A; • Y=percent activity using active compound b at an application rate B; • E=expected activity (in %) by a+b at application rates A+B.
# (§9) If the value found experimentally is higher than the value E calculated according to Colby, a synergistic effect is present.
# ALOMY = assay: Greenhouse test, pre-emergence treatment; type: in vivo, Alopecurus myosuroides; settings: pre-emergence
# How it was run: (§10)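 Seeds were sown in loamy sand with about 3.0% humus, and compounds in water were sprayed immediately after sowing, alone or as combinations formulated as 10% emulsion concentrates. Plants grew under hoods until rooted, at 10-25 °C or 20-35 °C by species, for 2 to 4 weeks. Damage was scored 0-100 (100 = no emergence or complete destruction), and Colby expected values were E=X+Y−(X·Y/100).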
# ELEIN = assay: Greenhouse test, pre-emergence treatment; type: in vivo, Eleusine indica
# Excerpt: as §1, §2, §3, §4, §5, §6, §7, §8, §9
# LOLMU = assay: Greenhouse test, pre-emergence treatment; type: in vivo, Lolium multiflorum; settings: pre-emergence
# Excerpt: as §1, §2, §3, §4, §5, §6, §7, §8, §9
# AVEFA = assay: Greenhouse test, pre-emergence treatment; type: in vivo, Avena fatua; settings: pre-emergence
# Excerpt: as §1, §2, §3, §4, §5, §6, §7, §8, §9
# BRADC = assay: Greenhouse test, pre-emergence treatment; type: in vivo, Brachiaria decumbens; settings: pre-emergence
# Excerpt: as §1, §2, §3, §4, §5, §6, §7, §8, §9
# DIGSA = assay: Greenhouse test, pre-emergence treatment; type: in vivo
# ECHCG = assay: Greenhouse test, pre-emergence treatment; type: in vivo, Echinocloa crus-galli
# Excerpt: as §1, §2, §3, §4, §5, §6, §7, §8, §9
# POLCO [1] = assay: Greenhouse test, pre-emergence treatment; type: in vivo, Polygonum convolvulus; settings: pre-emergence; for observed % activity 20 DAT: POLCO
# How it was run: as §10
# KCHSC = assay: Greenhouse test, pre-emergence treatment; type: in vivo, Kochia scoparia; settings: pre-emergence
# How it was run: as §10
# SETVI = assay: Greenhouse test, pre-emergence treatment; type: in vivo, Setaria viridis
# Excerpt: as §1, §2, §3, §4, §5, §6, §7, §8, §9
# AMARE [2] = assay: Greenhouse test, pre-emergence treatment; type: in vivo, Amaranthus retroflexus; settings: application rate 0.25 kg/ha, scale 0 to 100
# Excerpt: as §1, §2, §3, §4
# Evaluation was carried out using a scale from 0 to 100. […]
# In the examples below, using the method of S. R. Colby (1967) “Calculating synergistic and antagonistic responses of herbicide combinations”, Weeds 15, p. 22ff., the value E, which is expected if the activity of the individual active compounds is only additive, was calculated. […]
# as §9
# ABUTH = assay: Greenhouse test, pre-emergence treatment; type: in vivo, Abutilon theophrasti
# How it was run: as §10
# SETFA = assay: Greenhouse test, pre-emergence treatment; type: in vivo, Setaria faberi; settings: SETFA, application rate 0.25 kg/ha, scale 0 to 100
# Excerpt: as §1, §2, §3, §4, §5, §6, §7, §8, §9
# COMBE = assay: Greenhouse test, pre-emergence treatment; type: in vivo, Commelina benghalensis; settings: Commelina benghalensis, pre-emergence, 480 h
# How it was run: as §10
# ANTAR = assay: Greenhouse test, pre-emergence treatment; type: in vivo; settings: Anthemis arvensis, 480 h, 40 g ai/ha, 20 DAT, read-out: observed % activity
# How it was run: as §10
# GERPU = assay: Greenhouse test, pre-emergence treatment; type: in vivo, Geranium pusillum; settings: Geranium pusillum, pre-emergence, 480 h
# How it was run: as §10
# CENCY = assay: Greenhouse test, pre-emergence treatment; type: in vivo; settings: 480 h, read-out: observed % activity 20 DAT
# IPOHE = assay: Greenhouse test, pre-emergence treatment; type: in vivo, Ipomoea hederacea; settings: Ipomoea hederacea, 480 h, 60 g ai/ha, read-out: observed % activity 20 DAT
# How it was run: as §10
# EPHHL = assay: Greenhouse test, pre-emergence treatment; type: in vivo, Euphorbia heterophylla; settings: Euphorbia heterophylla, pre-emergence, 480 h
# How it was run: as §10
# GALAP = assay: Greenhouse test, pre-emergence treatment; type: in vivo, Galium aparine; settings: Galium aparine, pre-emergence, 480 h
# How it was run: as §10
# SIDRH = assay: Greenhouse test, pre-emergence treatment; type: in vivo, Sida rhombifolia; settings: Sida rhombifolia, pre-emergence, 480 h, 40 g ai/ha, 20 DAT; read-out: observed % activity
# How it was run: as §10
# POLCO [3] = assay: Greenhouse test, post-emergence treatment; type: in vivo, Polygonum convolvulus; settings: application rate 1.0 kg/ha, scale 0 to 100
# Excerpt: as §1
# (§11) For the post-emergence treatment, the test plants were first grown to a height of […], depending on the plant habit, and only then treated with the active ingredients which had been suspended or emulsified in water. For this purpose, the test plants were either sown directly and grown in the same containers, or they were first grown separately as seedlings and transplanted into the test containers a few days prior to treatment.
# as §3, §4, §5
# AMARE [4] = assay: Greenhouse test, post-emergence treatment; type: in vivo, Amaranthus retroflexus; settings: application rate 1.0 kg/ha, scale 0 to 100
# Excerpt: as §1, §11, §3, §4, §5
# [5] = 80 g ai/ha, 20 DAT, read-out: observed % activity
# [6] = 60 g ai/ha, read-out: observed % activity 20 DAT
# [7] = 40 g ai/ha, 20 DAT, read-out: observed % activity
smiles,measurement,setting,value
"C#CCN1C(=O)C(F)(F)Oc2cc(F)c(-n3c(=O)n(C)c(=S)n(C)c3=O)cc21 [PPO, trifludimoxazin]",observed % activity 20 DAT,PHACA; 18 g ai/ha,45%
same,observed % activity 20 DAT,PHACA; 25 g ai/ha,35%
same,observed % activity 20 DAT,"PHACA; 36 g ai/ha, listed as BAS 850 (PPO)",70% and 65%
same,observed % activity 20 DAT,PHACA; use rate 12.5 g ai/ha,85%
same,observed % activity 20 DAT,ALOMY; 25 g ai/ha,60%
same,observed % activity 20 DAT,ELEIN; 18 g ai/ha,55%
same,observed % activity 20 DAT,ELEIN; 36 g ai/ha,90%
same,observed % activity 20 DAT,LOLMU; 25 g ai/ha,0%
same,observed % activity 20 DAT,LOLMU; 36 g ai/ha,35%
same,observed % activity 20 DAT,LOLMU; 50 g ai/ha,55%
same,observed % activity 20 DAT,AVEFA; 25 g ai/ha,0%
same,observed % activity 20 DAT,AVEFA; 36 g ai/ha,15%
same,observed % activity 20 DAT,AVEFA; 50 g ai/ha,0%
same,observed % activity 20 DAT,BRADC; 25 g ai/ha,65%
same,observed % activity 20 DAT,BRADC; 36 g ai/ha,25%
same,observed % activity 20 DAT,DIGSA; 18 g ai/ha,85%
same,observed % activity 20 DAT,DIGSA; 36 g ai/ha,90%
same,observed % activity 20 DAT,ECHCG; 18 g ai/ha,0%
same,observed % activity 20 DAT,"POLCO [1]; use rate 12.5 g ai/ha, 20 DAT",0%
same,observed % activity 20 DAT,"POLCO [1]; use rate 25 g ai/ha, 20 DAT",0%
same,observed % activity 20 DAT,"KCHSC; KCHSC, use rate 12.5 g ai/ha, 20 DAT",25%
same,observed % activity 20 DAT,KCHSC; use rate 12.5 g ai/ha,25%
same,observed % activity 20 DAT,KCHSC; use rate 25 g ai/ha,85%
same,observed % activity 20 DAT,SETVI; 18 g ai/ha,95%
same,observed % activity 20 DAT,SETVI; 36 g ai/ha,90%
"CCCC(C)c1nc(N)nc(Nc2c(F)c(F)cc(F)c2F)n1 (stereo not drawn) [Example 6, 6-(1-methylbutyl)-N4-(2,3,5,6-tetrafluorophenyl)-1,3,5-triazine-2,4-diamine]",herbicidal activity,AMARE [2],very good herbicidal activity (a very good herbicidal activity is given at values of at least 85)
same,herbicidal activity,"ABUTH; ABUTH, application rate 0.25 kg/ha, scale 0 to 100",very good herbicidal activity (a very good herbicidal activity is given at values of at least 85)
same,herbicidal activity,SETFA,very good herbicidal activity (a very good herbicidal activity is given at values of at least 85)
"CC(c1nc(N)nc(Nc2c(F)c(F)cc(F)c2F)n1)C(C)(C)C (stereo not drawn) [Example 7, N4-(2,3,5,6-tetrafluorophenyl)-6-(1,2,2-trimethylpropyl)-1,3,5-triazine-2,4-diamine]",herbicidal activity,AMARE [2],very good herbicidal activity (a very good herbicidal activity is given at values of at least 85)
same,herbicidal activity,"ECHCG; ECHCG, application rate 0.25 kg/ha, scale 0 to 100",very good herbicidal activity (a very good herbicidal activity is given at values of at least 85)
same,herbicidal activity,SETFA,very good herbicidal activity (a very good herbicidal activity is given at values of at least 85)
"CC(C)N(C(=O)SCC(Cl)=C(Cl)Cl)C(C)C [Tri-allate, triallate]",inhibition at 200 g/ha,"PHACA; Phalaris canariensis, 480 h, 200 g ai/ha, read-out: observed % activity 20 DAT",0%
same,inhibition at 400 g/ha,"PHACA; Phalaris canariensis, 480 h, 400 g ai/ha, read-out: observed % activity 20 DAT",0%
same,inhibition at 400 g/ha,"ALOMY; Alopecurus myosuroides, 480 h, 400 g ai/ha, read-out: observed % activity 20 DAT",5%
same,inhibition at 400 g/ha,"ELEIN; Eleusine indica, 480 h, 400 g ai/ha, read-out: observed % activity 20 DAT",0%
same,inhibition at 200 g/ha,"AVEFA; Avena fatua, 480 h, 200 g ai/ha, read-out: observed % activity 20 DAT",45%
same,inhibition at 400 g/ha,"AVEFA; Avena fatua, 480 h, 400 g ai/ha, read-out: observed % activity 20 DAT",75%
same,inhibition at 200 g/ha,"BRADC; Urochloa decumbens, 480 h, 200 g ai/ha, read-out: observed % activity 20 DAT",0%
same,inhibition at 400 g/ha,"DIGSA; Digitaria sanguinalis, 480 h, 400 g ai/ha, read-out: observed % activity 20 DAT",0%
O=C(Nc1ccc(F)cc1F)c1cccnc1Oc1cccc(C(F)(F)F)c1 [diflufenican],inhibition at 80 g/ha,COMBE; [5],55%
same,inhibition at 60 g/ha,COMBE; [6],35%
same,inhibition at 40 g/ha,ANTAR,85%
same,inhibition at 40 g/ha,GERPU; [7],40%
same,inhibition at 80 g/ha,GERPU; [5],50%
same,inhibition at 60 g/ha,GERPU; [6],60%
same,inhibition at 30 g/ha,CENCY; 30 g ai/ha,0%
same,inhibition at 60 g/ha,CENCY; 60 g ai/ha,0%
same,inhibition at 60 g/ha,IPOHE,15%
same,inhibition at 40 g/ha,EPHHL; [7],20%
same,inhibition at 60 g/ha,EPHHL; [6],15%
same,inhibition at 80 g/ha,GALAP; [5],40%
same,inhibition at 30 g/ha,"GALAP; 30 g ai/ha, read-out: observed % activity 20 DAT",20%
same,inhibition at 60 g/ha,GALAP; [6],25%
same,inhibition at 30 g/ha,"ABUTH; Abutilon theophrasti, 480 h, 30 g ai/ha, read-out: observed % activity 20 DAT",0%
same,inhibition at 40 g/ha,"ABUTH; Abutilon theophrasti, 480 h, 40 g ai/ha, 20 DAT, read-out: observed % activity",25%
same,inhibition at 60 g/ha,"ABUTH; Abutilon theophrasti, 480 h, 60 g ai/ha, read-out: observed % activity 20 DAT",0%
same,inhibition at 80 g/ha,"ABUTH; Abutilon theophrasti, 480 h, 80 g ai/ha, 20 DAT, read-out: observed % activity",50%
same,inhibition at 40 g/ha,"POLCO [1]; Fallopia convolvulus, 480 h, 40 g ai/ha, 20 DAT, read-out: observed % activity",20%
same,inhibition at 60 g/ha,"POLCO [1]; Fallopia convolvulus, 480 h, 60 g ai/ha, read-out: observed % activity 20 DAT",60%
same,inhibition at 60 g/ha,"KCHSC; Bassia scoparia, 480 h, 60 g ai/ha, read-out: observed % activity 20 DAT",80%
same,inhibition at 40 g/ha,SIDRH,0%
"Nc1nc(CC2CC2)nc(Nc2c(F)cc(F)cc2F)n1 [Example 4, 6-(cyclopropylmethyl)-N4-(2,4,6-trifluorophenyl)-1,3,5-triazine-2,4-diamine]",herbicidal activity,POLCO [3],good herbicidal activity (a good herbicidal activity is given at values of at least 70)
same,herbicidal activity,AMARE [4],very good herbicidal activity (a very good herbicidal activity is given at values of at least 85)
